From patent US9409905B2, “Antibacterial compounds and methods for use” (PTC THERAPEUTICS, INC., priority 2011, dated 2016) come the findings set out here.

Structures are written as SMILES. Converted amounts (≈) assume the structure as drawn.

A word on the MIC: it is the least concentration at which growth counts as inhibited.

In assay [1] the test system is Pseudomonas aeruginosa (P. aeruginosa) 27853. Description: Antibacterial activity, MIC (Table 5). Particulars: P. aeruginosa 27853, read-out: MIC, 27853. The class given is cell-based. Put shortly: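 Compounds are serially diluted in broth and inoculated with the organism. Growth is then inspected macroscopically, and the lowest concentration showing none is taken as the MIC (μg/mL).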

A further assay relates to K. pneumoniae MXX1232. The assay is described as follows: Antibacterial activity, MIC, resistant strain (Table 4). The class given is cell-based. The conditions noted are these: Klebsiella pneumoniae, MXX1232; resistant K. pneumoniae MMX1232, multi-drug resistant clinical isolate; read-out: MIC, MMX1232. The procedure, abridged: (§1)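 Values are minimum inhibitory concentrations in μg/mL from broth microdilution, meaning no macroscopically visible growth at that concentration. Resistant MXX isolates are multi-drug resistant clinical strains.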

For another assay, the system named is A. baumannii MXX2240. Described as above. The class given is cell-based. Particulars: Acinetobacter baumannii, MXX2240; resistant A. baumannii MMX2240, multi-drug resistant clinical isolate; read-out: MIC, MMX2240. The procedure, abridged:
as §1

Assay [2] relates to Acinetobacter baumannii (A. baumannii) BAA747. Description: Antibacterial activity, MIC (Table 4). The class given is cell-based. Particulars: A. baumannii BAA747, read-out: MIC, BAA747. Put shortly:
as §1

Assay [3] relates to Klebsiella pneumoniae (K. pneumoniae) 35657. Description: Antibacterial activity, MIC (Table 4). The class given is cell-based. The conditions noted are these: K. pneumoniae 35657, read-out: MIC, 35657. Put shortly:
as §1

The subject of another assay is E. coli LZ3111. The assay is described as follows: Antibacterial activity, MIC, quinolone resistant strain (Table 2). The class given is cell-based. Particulars: Escherichia coli, LZ3111, read-out: MIC LZ3111. The procedure, abridged: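 Strain carries mutations conferring high-level quinolone resistance; tested by microbroth dilution, MIC recorded in μg/mL as lowest concentration preventing visible growth.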

A further assay concerns E. coli 25922. Description: Antibacterial activity, microbroth dilution MIC (Table 1). The class given is cell-based, Escherichia coli. The conditions noted are these: Escherichia coli; microbroth dilution; control Gram-negative E. coli 25922 strain; read-out: MIC, 25922. The procedure, abridged: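 Read-out: visual absence of growth. The lowest concentration meeting this gives the MIC, expressed in μg/mL, with microbroth dilution as the method.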
(Broth dilution looks for growth in wells or tubes with falling amounts of substance.)

Assay [4] deals with Escherichia coli (E. coli) BAS849. The assay is described as above. The class given is cell-based. Particulars: microbroth dilution, super sensitive Gram-negative E. coli BAS849, read-out: MIC, BAS849. Put shortly: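 In a microbroth dilution test, the minimum inhibitory concentration was defined as the lowest compound level preventing growth seen by eye, and was given in μg/mL.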

The test system of assay [5] is Staphylococcus aureus (S. aureus) 29213. The description is as above. The class given is cell-based. Particulars: microbroth dilution, Gram-positive S. aureus 29213, read-out: MIC, 29213. Put shortly:
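Lowest concentration stopping macroscopically visible growth under test conditions, by broth microdilution, defines the MIC (μg/mL).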

As to `CCc1c(-c2ccc3c4c([nH]c3c2)CN(C(C)C)CC4)[nH]c(=O)c(C(=O)O)c1O` [Cpd 449, 5-ethyl-4-hydroxy-6-(2-isopropyl-2,3,4,9-tetrahydro-1H-pyrido[3,4-b]indol-7-yl)-2-oxo-1,2-dihydropyridine-3-carboxylic acid], the MIC was 12.5 to 150 µg/mL (≈ 31.6 to 379 µM) in assay [1]; 12.5 to 150 µg/mL (≈ 31.6 to 379 µM) in the assay with K. pneumoniae MXX1232; 3.5 to 12.5 µg/mL (≈ 8.85 to 31.6 µM) in the assay on A. baumannii MXX2240; 3.5 to 12.5 µg/mL (≈ 8.85 to 31.6 µM) in [2]; less than 1 µg/mL in [3]; 3.5 to 12.5 µg/mL (≈ 8.85 to 31.6 µM) with E. coli LZ3111. The MIC in the assay on E. coli 25922 was less than 1 µg/mL; in assay [4], less than 1 µg/mL; in assay [5] it was 12.5 to 150 µg/mL (≈ 31.6 to 379 µM).
For the molecule `CCc1c(-c2ccc3c4c([nH]c3c2)CCNC4)[nH]c(=O)c(C(=O)O)c1O` [Cpd 450, 5-ethyl-4-hydroxy-2-oxo-6-(2,3,4,5-tetrahydro-1H-pyrido[4,3-b]indol-7-yl)-1,2-dihydropyridine-3-carboxylic acid], the MIC in [1] lay within 12.5 to 150 µg/mL (≈ 35.4 to 424 µM); in the assay on K. pneumoniae MXX1232, 12.5 to 150 µg/mL (≈ 35.4 to 424 µM); in the assay on A. baumannii MXX2240, 12.5 to 150 µg/mL (≈ 35.4 to 424 µM); in assay [2], 12.5 to 150 µg/mL (≈ 35.4 to 424 µM); in [3], 3.5 to 12.5 µg/mL (≈ 9.9 to 35.4 µM); in the assay with E. coli LZ3111, 12.5 to 150 µg/mL (≈ 35.4 to 424 µM). In addition, the MIC with E. coli 25922 is 12.5 to 150 µg/mL (≈ 35.4 to 424 µM); in [4], 3.5 to 12.5 µg/mL (≈ 9.9 to 35.4 µM); in [5], 12.5 to 150 µg/mL (≈ 35.4 to 424 µM).
For `CCc1c(-c2ccc3c4c([nH]c3c2)CCN(C)C4)[nH]c(=O)c(C(=O)O)c1O` [Cpd 451, 5-ethyl-4-hydroxy-6-(2-methyl-2,3,4,5-tetrahydro-1H-pyrido[4,3-b]indol-7-yl)-2-oxo-1,2-dihydropyridine-3-carboxylic acid], the minimum inhibitory concentration (MIC) in [1] was 12.5 to 150 µg/mL (≈ 34 to 408 µM); with K. pneumoniae MXX1232, 12.5 to 150 µg/mL (≈ 34 to 408 µM); in the assay on A. baumannii MXX2240 it was 12.5 to 150 µg/mL (≈ 34 to 408 µM); in assay [2], 3.5 to 12.5 µg/mL (≈ 9.53 to 34 µM); in assay [3] it was less than 1 µg/mL; in the assay on E. coli LZ3111, 3.5 to 12.5 µg/mL (≈ 9.53 to 34 µM). The values for the MIC (in the assay with E. coli 25922; in [4]; in assay [5]) were less than 1 µg/mL, less than 1 µg/mL and 12.5 to 150 µg/mL (≈ 34 to 408 µM), respectively.
With `CCc1c(-c2ccc3c4c([nH]c3c2)CCN(CC)C4)[nH]c(=O)c(C(=O)O)c1O` [Cpd 452, 5-ethyl-6-(2-ethyl-2,3,4,5-tetrahydro-1H-pyrido[4,3-b]indol-7-yl)-4-hydroxy-2-oxo-1,2-dihydropyridine-3-carboxylic acid], the minimum inhibitory concentration (MIC) in assay [1] lay within 12.5 to 150 µg/mL (≈ 32.8 to 393 µM); with K. pneumoniae MXX1232, 12.5 to 150 µg/mL (≈ 32.8 to 393 µM); with A. baumannii MXX2240 it was 12.5 to 150 µg/mL (≈ 32.8 to 393 µM); in [2], 12.5 to 150 µg/mL (≈ 32.8 to 393 µM); in assay [3] it was 1 to 3.5 µg/mL (≈ 2.62 to 9.18 µM); with E. coli LZ3111 it was 12.5 to 150 µg/mL (≈ 32.8 to 393 µM). For the same molecule, the MIC in the assay on E. coli 25922 is less than 1 µg/mL; in [4], less than 1 µg/mL; in assay [5], 12.5 to 150 µg/mL (≈ 32.8 to 393 µM).
`CCc1c(-c2ccc3[nH]c(-c4ccc(C#N)cc4)cc3c2)[nH]c(=O)c(C(=O)O)c1O` [Cpd 453, 6-(2-(4-cyanophenyl)-1H-indol-5-yl)-5-ethyl-4-hydroxy-2-oxo-1,2-dihydropyridine-3-carboxylic acid]: the minimum inhibitory concentration (MIC) (in [1]; in the assay on K. pneumoniae MXX1232; with A. baumannii MXX2240; in assay [2]; in assay [3]; in the assay with E. coli LZ3111) was 12.5 to 150 µg/mL (≈ 31.3 to 376 µM) throughout. Moreover, the MIC was 12.5 to 150 µg/mL (≈ 31.3 to 376 µM) in the assay with E. coli 25922, less than 1 µg/mL in assay [4] and 1 to 3.5 µg/mL (≈ 2.5 to 8.76 µM) in assay [5].
Consider `CCc1c(-c2ccc3[nH]c(-c4ccccc4)cc3c2)[nH]c(=O)c(C(=O)O)c1O` [Cpd 454, 5-ethyl-4-hydroxy-2-oxo-6-(2-phenyl-1H-indol-5-yl)-1,2-dihydropyridine-3-carboxylic acid], for which the MIC (in [1]; with K. pneumoniae MXX1232; in the assay on A. baumannii MXX2240; in [2]; in assay [3]; in the assay on E. coli LZ3111) was 12.5 to 150 µg/mL (≈ 33.4 to 401 µM) in each case. The MIC in the assay on E. coli 25922 was 12.5 to 150 µg/mL (≈ 33.4 to 401 µM); in assay [4], less than 1 µg/mL; in [5], less than 1 µg/mL.
With `CCc1c(-c2ccc3[nH]c(-c4ccc(C(F)(F)F)cc4)cc3c2)[nH]c(=O)c(C(=O)O)c1O` [Cpd 455, 5-ethyl-4-hydroxy-2-oxo-6-(2-(4-(trifluoromethyl)phenyl)-1H-indol-5-yl)-1,2-dihydropyridine-3-carboxylic acid], the MIC (in assay [1]; with K. pneumoniae MXX1232; in the assay on A. baumannii MXX2240; in assay [2]; in [3]; in the assay on E. coli LZ3111) was 12.5 to 150 µg/mL (≈ 28.3 to 339 µM) throughout. The minimal inhibitory concentration (MIC) with E. coli 25922 is 12.5 to 150 µg/mL (≈ 28.3 to 339 µM); in assay [4], less than 1 µg/mL; in assay [5] it was 3.5 to 12.5 µg/mL (≈ 7.91 to 28.3 µM).
